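Exposure lasted 48 hours, with cells grown in 96-well plates and compounds tested at five concentrations. Here, GI50 denotes the concentration required for 50% inhibition of growth.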 The source made the active and inactive calls. Rule as the data show it: active = GI50 up to about 1.1 µM and inactive = higher.
Assays:
Assay in all cases: growth of human tumour cells (NCI), 48 h
786-0 = test system: 786-0
A498 = test system: A498
A549 = test system: A549
ACHN = test system: ACHN
BT-549 = test system: BT-549
CCRF-CEM = test system: CCRF-CEM
COLO 205 = test system: COLO 205
DU-145 = test system: DU-145
EKVX = test system: EKVX
HCC 2998 = test system: HCC 2998
HCT-116 = test system: HCT-116
HCT-15 = test system: HCT-15
HL-60 = test system: HL-60
HOP-62 = test system: HOP-62
HT-29 = test system: HT-29
Hs-578T = test system: Hs-578T
IGROV-1 = test system: IGROV-1
K562 = test system: K562
KM12 = test system: KM12
LOX IMVI = test system: LOX IMVI
M14 = test system: M14
MCF7 = test system: MCF7
MDA-MB-435 = test system: MDA-MB-435
MDA-N = test system: MDA-N
MOLT-4 = test system: MOLT-4
Malme-3M = test system: Malme-3M
NCI-H226 = test system: NCI-H226
NCI-H23 = test system: NCI-H23
NCI-H460 = test system: NCI-H460
NCI-H522 = test system: NCI-H522
NCI/ADR-RES = test system: NCI/ADR-RES
OVCAR-4 = test system: OVCAR-4
OVCAR-5 = test system: OVCAR-5
OVCAR-8 = test system: OVCAR-8
PC-3 = test system: PC-3
RPMI-8226 = test system: RPMI-8226
RXF 393 = test system: RXF 393
SF-268 = test system: SF-268
SF-295 = test system: SF-295
SK-MEL-28 = test system: SK-MEL-28
SK-MEL-2 = test system: SK-MEL-2
SK-MEL-5 = test system: SK-MEL-5
SK-OV-3 = test system: SK-OV-3
SN12C = test system: SN12C
SNB-19 = test system: SNB-19
SNB-75 = test system: SNB-75
SR = test system: SR
SW-620 = test system: SW-620
T47D = test system: T47D
TK-10 = test system: TK-10
U-251 = test system: U-251
UACC-257 = test system: UACC-257
UACC-62 = test system: UACC-62
UO-31 = test system: UO-31

Structure (SMILES): Cc1nnc(N)nc1/C=C\c1ccc(N(C)C)cc1
- GI50 (786-0): > 26.7 µM (inactive)
- GI50 (A498): 16.6 µM (inactive)
- GI50 (A549): 9.79 µM (inactive)
- GI50 (ACHN): 15 µM (inactive)
- GI50 (BT-549): > 20.9 µM (inactive)
- GI50 (CCRF-CEM): 10.3 µM (inactive)
- GI50 (COLO 205): > 29.7 µM (inactive)
- GI50 (DU-145): > 66.2 µM (inactive)
- GI50 (EKVX): 29.6 µM (inactive)
- GI50 (HCC 2998): 3.78 µM (inactive)
- GI50 (HCT-116): 10.8 µM (inactive)
- GI50 (HCT-15): 2.99 µM
- GI50 (HL-60): 3.32 µM (inactive)
- GI50 (HOP-62): 38.5 µM (inactive)
- GI50 (HT-29): 8.83 µM (inactive)
- GI50 (Hs-578T): 5.82 µM (inactive)
- GI50 (IGROV-1): 37.5 µM (inactive)
- GI50 (K562): 86.9 µM (inactive)
- GI50 (KM12): 12.3 µM (inactive)
- GI50 (LOX IMVI): 4.88 µM (inactive)
- GI50 (M14): 27 µM (inactive)
- GI50 (MCF7): 3.85 µM (inactive)
- GI50 (MDA-MB-435): 6.27 µM (inactive)
- GI50 (MDA-N): 17.4 µM (inactive)
- GI50 (MOLT-4): 17.6 µM (inactive)
- GI50 (Malme-3M): 29.2 µM (inactive)
- GI50 (NCI-H226): 16.1 µM (inactive)
- GI50 (NCI-H23): 7.01 µM (inactive)
- GI50 (NCI-H460): 9.66 µM (inactive)
- GI50 (NCI-H522): 1.68 µM (inactive)
- GI50 (NCI/ADR-RES): 12.4 µM (inactive)
- GI50 (OVCAR-4): 26.5 µM (inactive)
- GI50 (OVCAR-5): > 86.3 µM (inactive)
- GI50 (OVCAR-8): 22.9 µM (inactive)
- GI50 (PC-3): 30.7 µM (inactive)
- GI50 (RPMI-8226): 9.86 µM (inactive)
- GI50 (RXF 393): > 40.1 µM (inactive)
- GI50 (SF-268): > 34.2 µM (inactive)
- GI50 (SF-295): > 41.2 µM (inactive)
- GI50 (SK-MEL-28): > 45.9 µM (inactive)
- GI50 (SK-MEL-2): 39.8 µM (inactive)
- GI50 (SK-MEL-5): 18.5 µM (inactive)
- GI50 (SK-OV-3): > 29.4 µM (inactive)
- GI50 (SN12C): > 100 µM (inactive)
- GI50 (SNB-19): 15.2 µM (inactive)
- GI50 (SNB-75): 2.67 µM (inactive)
- GI50 (SR): 6.24 µM (inactive)
- GI50 (SW-620): > 64.6 µM (inactive)
- GI50 (T47D): > 24.6 µM (inactive)
- GI50 (TK-10): > 37.6 µM (inactive)
- GI50 (U-251): > 27.1 µM (inactive)
- GI50 (UACC-257): 22.5 µM (inactive)
- GI50 (UACC-62): 4.27 µM (inactive)
- GI50 (UO-31): 3.18 µM (inactive)
